# From US10716828B2, “Methods of modulating cellular homeostatic pathways and cellular survival” (Dana-Farber Cancer Institute, Inc., priority 2007, dated 2020)
# System: islets
# Test: Toxicity to islets
# Type: cell-based, mouse
# Conditions: 3 μM
structure (smiles),measurement,value
CSCC[C@@H]1NC(=O)[C@@](C)(NC(=O)[C@H](CCCNC(=N)N)NC(=O)[C@H](CC(C)C)NC(=O)[C@H](CCC(=O)O)NC(=O)[C@H](CCCNC(=N)N)NC(=O)CNC(=O)[C@H](Cc2ccc(O)cc2)NC(=O)[C@H](CCCNC(=N)N)NC(=O)[C@H](CCC(N)=O)NC(=O)[C@H](C)NC(=O)[C@H](C)NC(=O)[C@H](Cc2c[nH]c3ccccc23)NC(=O)[C@H](CC(C)C)NC(=O)[C@@H](N)CC(N)=O)CCCC=CCCC[C@@](C)(C(=O)N[C@@H](Cc2ccccc2)C(=O)N[C@H](C(=O)N[C@@H](CC(=O)O)C(=O)N[C@@H](CO)C(=O)N[C@@H](Cc2ccccc2)C(=O)N[C@@H](CCCCN)C(=O)N[C@@H](CCCCN)C(=O)O)C(C)C)NC(=O)[C@H](CC(=O)O)NC(=O)[C@H](CO)NC1=O [BAD SAHBA],toxicity to islets,not toxic to islets
